# Source: US7384933B2, “Derivatives of 2-hydroxytetrahydrofuran and their use as medicaments” (priority 2003, dated 2008)
row,SMILES,melting point
1,"CC(C)C[C@H](NC(=O)CNC(=O)c1ccc2c(c1)Nc1ccccc1S2)C(=O)N[C@H]1CCOC1O (stereo partly drawn) [Example 7, N-(10H-phenothiazin-2-ylcarbonyl)glycyl-N^1-[(3S)-2-hydroxytetrahydrofuran-3-yl]-L-leucinamide]",126 to 126.5 °C
2,COC1OCC[C@@H]1NC(=O)[C@H](CC(C)C)NC(=O)CNC(=O)COc1ccc2c(c1)Nc1ccccc1S2 (some centres unmarked),181 to 182 °C
3,"CC(C)C[C@H](NC(=O)[C@H](COC(C)(C)C)NC(=O)Cc1ccc2c(c1)Nc1ccccc1S2)C(=O)N[C@H]1CCOC1O (stereo partly drawn) [Example 17, O-(tert-butyl)-N-(10H-phenothiazin-2-ylacetyl)-L-seryl-N^1-[(3S)-2-hydroxytetrahydrofuran-3-yl]-L-leucinamide]",135 to 136 °C
4,COC1OCC[C@@H]1NC(=O)[C@H](CC(C)C)NC(=O)[C@H](NC(=O)COc1ccc2c(c1)Nc1ccccc1S2)C(C)C (some centres unmarked),204 to 206 °C
5,COC1OCC[C@@H]1NC(=O)[C@H](CC(C)C)NC(=O)C(C)(C)NC(=O)COc1ccc2c(c1)Nc1ccccc1S2 (some centres unmarked),119 to 120 °C
6,CC[C@H](NC(=O)COc1ccc2c(c1)Nc1ccccc1S2)C(=O)N[C@@H](CC(C)C)C(=O)N[C@H]1CCOC1OC (some centres unmarked),164 to 165 °C
7,"CC(C)C[C@H](NC(=O)Cc1ccc2c(c1)Nc1ccccc1S2)C(=O)N[C@@H](CC(C)C)C(=O)N[C@H]1CCOC1O (stereo partly drawn) [Example 16, N-(10H-phenothiazin-2-ylacetyl)-L-leucyl-N^1-[(3S)-2-hydroxytetrahydrofuran-3-yl]-L-leucinamide]",168 to 168.5 °C
8,"CC(C)C[C@H](NC(=O)[C@H](CCCCNC(=O)OCc1ccccc1)NC(=O)c1ccc2c(c1)Nc1ccccc1S2)C(=O)N[C@H]1CCOC1O (stereo partly drawn) [Example 9, N 6-[(benzyloxy)carbonyl]-N^2-(10H-phenothiazin-2-ylcarbonyl)lysyl-N^1-[(3S)-2-hydroxytetrahydrofuran-3-yl]-L-leucinamide]",109 to 109.5 °C
9,CCC[C@H](NC(=O)COc1ccc2c(c1)Nc1ccccc1S2)C(=O)N[C@@H](CC(C)C)C(=O)N[C@H]1CCOC1OC (some centres unmarked),225 to 226 °C
10,COC1OCC[C@@H]1NC(=O)[C@H](CC(C)C)NC(=O)CN(C)C(=O)COc1ccc2c(c1)Nc1ccccc1S2 (some centres unmarked),92 to 95 °C
11,COC1OCC[C@@H]1NC(=O)[C@H](CC(C)C)NC(=O)[C@H](C)NC(=O)COc1ccc2c(c1)Nc1ccccc1S2 (some centres unmarked),195 to 196 °C

# The remaining lines, values ahead:
row,melting point,SMILES
1,212 to 215 °C,"O=C(COc1ccc2c(c1)Nc1ccccc1S2)NCC(=O)N[C@@H](CC1CCCCC1)C(=O)N[C@H]1CCOC1O (stereo partly drawn) [Example 56, N-[(10H-phenothiazin-2-yloxy)acetyl]glycyl-3-cyclohexyl-N^1-[(3S)-2-hydroxytetrahydrofuran-3-yl]-L-alaninamide]"
2,161 to 162 °C,"CC(C)C[C@H](NC(=O)CCNC(=O)COc1ccc2c(c1)Nc1ccccc1S2)C(=O)N[C@H]1CCOC1O (stereo partly drawn) [Example 44, N-[(10H-phenothiazin-2-yloxy)acetyl]-β-alanyl-N^1-[(3S)-2-hydroxytetrahydrofuran-3-yl]-L-leucinamide]"
3,207 to 208 °C,"NC(=O)[C@H](Cc1ccccc1)N(C(=O)CNC(=O)COc1ccc2c(c1)Nc1ccccc1S2)[C@H]1CCOC1O (stereo partly drawn) [Example 57, N-[(10H-phenothiazin-2-yloxy)acetyl]glycyl-N^1-[(3S)-2-hydroxytetrahydrofuran-3-yl]-L-phenylalaninamide]"
4,137 to 138 °C,"CC(C)C[C@H](NC(=O)[C@@H](NC(=O)COc1ccc2c(c1)Nc1ccccc1S2)c1ccccc1)C(=O)N[C@H]1CCOC1O (stereo partly drawn) [Example 52, N^1-[(3S)-2-hydroxytetrahydrofuran-3-yl]-N^2-((2S)-2-{[(10H-phenothiazin-2-yloxy)acetyl]amino}-2-phenylethanoyl)-L-leucinamide]"
5,195 to 196 °C,"CCC[C@H](NC(=O)COc1ccc2c(c1)Nc1ccccc1S2)C(=O)N[C@@H](CC(C)C)C(=O)N[C@H]1CCOC1O (stereo partly drawn) [Example 49, N-[(10H-phenothiazin-2-yloxy)acetyl]-L-norvalyl-N^1-[(3S)-2-hydroxytetrahydrofuran-3-yl]-L-leucinamide]"
6,159 to 161 °C,"C=CC(NC(=O)COc1ccc2c(c1)Nc1ccccc1S2)C(=O)NC(CC(C)C)C(=O)NC1CCOC1O [Example 53, N^1-[(3S)-2-hydroxytetrahydrofuran-3-yl]-N^2-((2S)-2-{[(10H-phenothiazin-2-yloxy)-acetyl]amino}goal-3-enoyl)-L-leucinamide]"
7,205 to 206 °C,"CC(C)C[C@H](NC(=O)[C@@H](NC(=O)COc1ccc2c(c1)Nc1ccccc1S2)C(C)C)C(=O)N[C@H]1CCOC1O (stereo partly drawn) [Example 43, N-[(10H-phenothiazin-2-yloxy)acetyl]-L-valyl-N^1-[(3S)-2-hydroxytetrahydrofuran-3-yl]-L-leucinamide]"
8,184 to 186 °C,"CC(C)C[C@H](NC(=O)CNC(=O)COc1ccc2c(c1)Nc1ccccc1S2)C(=O)N[C@H]1CCOC1O (stereo partly drawn) [Example 41, N-[(10H-phenothiazin-2-yloxy)acetyl]-glycyl-N^1-[(3S)-2-hydroxytetrahydrofuran-3-yl]-L-leucinamide]"
9,145 to 146 °C,"CC(C)C[C@H](NC(=O)[C@H](NC(=O)COc1ccc2c(c1)Nc1ccccc1S2)C(C)C)C(=O)N[C@H]1CCOC1O (stereo partly drawn) [Example 46, N-[(10H-phenothiazin-2-yloxy)acetyl]-D-valyl-N^1-[(3S)-2-hydroxytetrahydrofuran-3-yl]-L-leucinamide]"
10,144 to 146 °C,"CC(C)C[C@H](NC(=O)[C@H](C)NC(=O)COc1ccc2c(c1)Nc1ccccc1S2)C(=O)N[C@H]1CCOC1O (stereo partly drawn) [Example 42, N-[(10H-phenothiazin-2-yloxy)acetyl]-L-alanyl-N^1-[(3S)-2-hydroxytetrahydrofuran-3-yl]-L-leucinamide]"
11,200 to 201 °C,"CC(C)[C@H](NC(=O)CNC(=O)COc1ccc2c(c1)Nc1ccccc1S2)C(=O)N[C@H]1CCOC1O (stereo partly drawn) [Example 55, N-[(10H-phenothiazin-2-yloxy)acetyl]glycyl-N^1-[(3S)-2-hydroxytetrahydrofuran-3-yl]-L-valinamide]"
12,137 to 138 °C,"CC(C)C[C@H](NC(=O)CN(C)C(=O)COc1ccc2c(c1)Nc1ccccc1S2)C(=O)N[C@H]1CCOC1O (stereo partly drawn) [Example 45, N-methyl-N-[(10H-phenothiazin-2-yloxy)acetyl]glycyl-N^1-[(3S)-2-hydroxytetrahydrofuran-3-yl]-L-leucinamide]"
13,195 to 196 °C,"CC(C)C[C@H](NC(=O)[C@@H](NC(=O)COc1ccc2c(c1)Nc1ccccc1S2)[C@@H](C)O)C(=O)N[C@H]1CCOC1O (stereo partly drawn) [Example 51, N-[(10H-phenothiazin-2-yloxy)acetyl]-L-threonyl-N^1-[(3S)-2-hydroxytetrahydrofuran-3-yl]-L-leucinamide]"
14,215 to 217 °C,"C[C@H](NC(=O)Cc1ccc2c(c1)Nc1ccccc1S2)C(=O)N[C@@H](CC1CCCCC1)C(=O)N[C@H]1CCOC1O (stereo partly drawn) [Example 18, N-(10H-phenothiazin-2-ylacetyl)-L-alanyl-3-cyclohexyl-N^1-[(3S)-2-hydroxytetrahydrofuran-3-yl]-L-alaninamide]"
15,157 to 159 °C,"CC(C)C[C@H](NC(=O)[C@@H](NC(=O)COc1ccc2c(c1)Nc1ccccc1S2)C(C)(C)C)C(=O)N[C@H]1CCOC1O (stereo partly drawn) [Example 47, 3-methyl-N-[(10H-phenothiazin-2-yloxy)acetyl]-L-valyl-N^1-[(3S)-2-hydroxytetrahydrofuran-3-yl]-L-leucinamide]"
